From patent US20070167438A1, “Treatment of substance abuse” (Wyeth, priority 2006, published 2007)

Test system: Rats
Experiment: Open field locomotor activity (distance moved, zones crossed) with or without cocaine
Assay type: in vivo
Settings: open field 1 hour after dosing, five minute test
Procedure: Using (9aR,12aS)-4,5,6,7,9,9a,10,11,12,12a-decahydrocyclopenta[c][1,4]diazepino[6,7,1-ij]quinoline hydrochloride (Compound 1) as an example, the Rats were dosed either with vehicle or with cocaine in the presence or absence of Compound 1 (1.7 mg/kg. sc). One hour after dosing (i.p. & s.c.), rats were put in a open field, where distance moved and zones crossed were recorded by the ethovision program.
Animals were brought to the lab room 1 hour before the start of the experiment. Rats were injected with compound(s) 1 hour before being placed in the open field. Rats were then placed in open field, and the test lasted for five minutes.

Cl.c1cc2c3c(c1)[C@H]1CCC[C@H]1CN3CCNC2 [Compound 1, (9aR,12aS)-4,5,6,7,9,9a,10,11,12,12a-decahydrocyclopenta[c][1,4]diazepino[6,7,1-ij]quinoline hydrochloride]
reversal of the hyperactivity produced by cocaine (Compound 1 1.7 mg/kg sc + cocaine 3 mg/kg ip): completely reversed
effect on locomotor activity alone (Compound 1 1.7 mg/kg sc + vehicle): no effect
